Drawing on patent publication US9527850B2, “Benzyl piperidine compounds as lysophosphatidic acid (LPA) receptor antagonist” (Merck Patent GmbH, priority 2011, dated 2016), this text covers IC50 for 38 compounds.

Structures are written as SMILES. Some results are limits rather than exact numbers.

T1 sequence (Q9HBW0 whole entry): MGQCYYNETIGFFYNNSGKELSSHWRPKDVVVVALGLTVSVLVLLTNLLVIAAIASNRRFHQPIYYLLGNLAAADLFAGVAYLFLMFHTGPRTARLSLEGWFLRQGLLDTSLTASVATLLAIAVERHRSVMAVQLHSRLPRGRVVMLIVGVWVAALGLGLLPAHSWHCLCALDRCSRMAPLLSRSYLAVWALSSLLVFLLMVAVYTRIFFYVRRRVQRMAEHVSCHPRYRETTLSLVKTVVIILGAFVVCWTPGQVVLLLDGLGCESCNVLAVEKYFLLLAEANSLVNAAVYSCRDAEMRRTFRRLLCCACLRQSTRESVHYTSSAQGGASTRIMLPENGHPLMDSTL

The experiment has as its target T1, LPA2 receptor (LPA2R) (Homo sapiens, UniProt Q9HBW0).
T1 construct: expressed in transfected cells; host or cells: U2OS
Put plainly: LPA2R-Calciumflux assay (intracellular calcium mobilisation, FLIPR). Format: cell-based. To be noted: U2OS cells recombinant expressing LPA2R; inhibition of LPA-induced Ca-flux; 10 concentrations 30 uM to 1 nM, 1% DMSO. The source says:
The assay detects intra cellular calcium which is generated by cells upon activation of the LPA2 receptor by its ligand LPA. This transient calcium mobilization can be monitored using a commercial calcium detection kit (e.g. from Molecular Devices). The main component of such a kit is a dye, which becomes fluorescent when calcium is present—a transient fluorescence signal after laddition of a ligand to a test well are the result. Readers like the FLIPR (Molecular Devices) can be used to monitor such transient “Ca-flux” signals.
The signals are calculated according to peak maximum minus base line.
The assay is performed in microplates (384 wells per plate).
LPA2R-Calciumflux Assay Protocol
The assay is run according to the following procedure: • 50 uL seed cells (10000 cells/well in DMEM buffer) • Incubate 24 h at 37° C., 10% CO2 • aspirate medium • 50 uL add calcium dye 1×HBSS/HEPES buffer • incubate 1 h at 37° C. (“loading”) • equilibrate 10 min at RT • 5 uL add compounds in HEPES buffer • shake 10 sec. at 1000 rpm • incubate 15 min at RT • 20 uL add LPA (in the FLIPR Tetra) in Krebs-buffer/BSA & measurement
The cells are seeded in DMEM buffer (DMEM, 10% FCS, 10 mM HEPES, 1% Pen/Strep).
Dye loading is done in HBSS/HEPES buffer (100 mL 10×HBSS+20 mL 1M HEPES+880 mL water, pH 7.4)
The LPA is added in Krebs/BSA buffer (120 mM NaCl, 5 mM KCl, 0.62 mM MgSO4, 1.8 mM CaCl2, 10 mM HEPES, 6 mM D(+)-Glucose, 0.2% BSA, pH 7.4).
The compounds are pre-diluted in HEPES buffer (20 mM, pH 7.4), whereby the final DMSO content in the assay is kept at 1%. The compounds are pre-diluted in order to generate dose response series on the microplates. The dose response series consist of 10 concentrations for each compound from 30 uM final to 1 nM final. From all compound wells the resulting signals are referred to control wells (located on each plate besides the compound wells) in terms of % activity.
From these % activity values—along with the corresponding compound concentrations—IC50 values are fitted for each compound using standard fitting programs such as Graphpad Prism. Here the method “log(inhibitor) vs. response—Variable slope” is used.
(In general: Calcium assays in cells follow changes in intracellular calcium, usually with a dye or a luminescent sensor.)
For orientation: IC50 means the concentration at which inhibition is half-maximal. Consider `c1ccc(CN2CCCCC2c2cc3ccccc3[nH]2)cc1` (centres unmarked) [compound 6, 2-(1-Benzyl-piperidin-2-yl)-1H-indole], for which the IC50 was in the range of 0.5 to 5 µM.

Regarding `COc1ccccc1CN1C(C)CCCC1c1cc2cc(F)ccc2[nH]1` (centres unmarked) [compound 28, 5-Fluoro-2-[1-(2-methoxy-benzyl)-6-methyl-piperidin-2-yl]-1H-indole], the half-inhibitory concentration (IC50) lay in the range of 0.5 to 5 µM. Consider `Cc1ccc(CN2CCCCC2c2cc3cc(F)cc(F)c3[nH]2)cc1` (centres unmarked) [compound 22, 5,7-Difluoro-2-[1-(4-methyl-benzyl)-piperidin-2-yl]-1H-indole], for which the 50% inhibitory concentration (IC50) lay within 5 to 15 µM.

On to `Cc1cc(C)c2cc(C3CCCCN3Cc3ccc(F)cc3)[nH]c2c1` (centres unmarked) [compound 69, 2-[1-(4-Fluoro-benzyl)-piperidin-2-yl]-4,6-dimethyl-1H-indole], for which the IC50 was in the range of 0.5 to 5 µM. For the compound `Cc1cccc(CN2CCCCC2c2cc3cccc(C)c3[nH]2)c1` (centres unmarked) [compound 20, 7-Methyl-2-[1-(3-methyl-benzyl)-piperidin-2-yl]-1H-indole], the 50% inhibitory concentration (IC50) was 0.5 to 5 µM. Turning to `Fc1ccc2[nH]c(C3CCCCN3Cc3c[nH]c4ccccc34)cc2c1` (centres unmarked) [compound 63, 5-Fluoro-2-[1-(1H-indol-3-ylmethyl)-piperidin-2-yl]-1H-indole], the IC50 was 0.5 to 5 µM. The same measure for `CC1CCCC(c2cc3cc(F)ccc3[nH]2)N1Cc1cccc([N+](=O)[O-])c1` (centres unmarked) [compound 31, 5-Fluoro-2-[6-methyl-1-(3-nitro-benzyl)-piperidin-2-yl]-1H-indole]: 0.5 to 5 µM; for `Cc1ccc(CN2CCC3C[C@]32c2nc3cc(F)ccc3[nH]2)cc1C` (stereo partly drawn) [compound 135, 2-[(R)-2-(3,4-Dimethyl-benzyl)-2-aza-bicyclo-[3.1.0]hex-1-yl]-5-fluoro-1H-benzo-imidazole]: 5 to 15 µM; for `Cc1cc2nc(C3CCCCN3Cc3ccc4c(c3)C(C)(C)CCC4(C)C)[nH]c2cc1Cl` (centres unmarked) [compound 113, 6-Chloro-5-methyl-2-[1-(5,5,8,8-tetramethyl-5,6,7,8-tetrahydro-naphthalen-2-ylmethyl)-piperidin-2-yl]-1H-benzo-imidazole]: 0.5 to 5 µM. Take `CCOC(=O)c1ccc(CN2C(C)CCCC2c2cc3cc(F)ccc3[nH]2)cc1` (centres unmarked) [compound 35, 4-[2-(5-Fluoro-1H-indol-2-yl)-6-methyl-piperidin-1-ylmethyl]-benzoic acid ethyl ester]: the concentration for half-maximal inhibition (IC50) was in the range of 0.5 to 5 µM. For the compound `Cc1ccc(CN2CCCCC2c2nc3cc(C)c(Cl)cc3[nH]2)cc1C` (centres unmarked) [compound 114, 6-Chloro-2-[1-(3,4-dimethyl-benzyl)-piperidin-2-yl]-5-methyl-1H-benzo-imidazole], the IC50 is less than 0.5 µM. On to `Cc1ccc(CN2CCCC[C@@H]2c2nc3cc(F)ccc3[nH]2)cc1C` [compound 119, 2-[(R)-1-(3,4-Dimethyl-benzyl)-piperidin-2-yl]-5-fluoro-1H-benzo-imidazole], for which the half-maximal inhibitory concentration (IC50) is less than 0.5 µM.

Consider `Cc1ccc(CN2CCCCC2c2nc3cc(F)ccc3[nH]2)cc1C` (centres unmarked) [compound 51, 2-[1-(3,4-Dimethyl-benzyl)-piperidin-2-yl]-5-fluoro-1H-benzo-imidazole], for which the IC50 was less than 0.5 µM.

On to `Fc1ccc(CN2CCCCC2c2nc3cc(Cl)cnc3[nH]2)cc1` (centres unmarked) [compound 120, 6-Chloro-2-[1-(4-fluoro-benzyl)-piperidin-2-yl]-3H-imidazo[4,5-b]pyridine], for which the 50% inhibitory concentration (IC50) is less than 0.5 µM. The same measure for `Fc1ccc2[nH]c(C3CCCCN3Cc3cccc(Br)c3)cc2c1` (centres unmarked) [compound 57, 2-[1-(3-Bromo-benzyl)-piperidin-2-yl]-5-fluoro-1H-indole]: 0.5 to 5 µM; for `CC1CCCC(c2cc3cc(F)ccc3[nH]2)N1Cc1cccnc1` (centres unmarked) [compound 41, 5-Fluoro-2-(6-methyl-1-pyridin-3-ylmethyl-piperidin-2-yl)-1H-indole]: 0.5 to 5 µM; for `Cc1ccc(CN2CCCCC2c2nc3ccccc3s2)cc1C` (centres unmarked) [compound 52, 2-[1-(3,4-Dimethyl-benzyl)-piperidin-2-yl]-benzo-thiazole]: 5 to 15 µM.

Turning to `Fc1ccc(CCCN2CCCCC2c2cc3cc(F)ccc3[nH]2)cc1` (centres unmarked) [compound 132, 5-Fluoro-2-{1-[3-(4-fluoro-phenyl)-propyl)-piperidin-2-yl}-1H-indole], the half-inhibitory concentration (IC50) lay in the range of 5 to 15 µM. `Fc1ccc(CN2CCCCC2c2nc3nccnc3[nH]2)cc1` (centres unmarked) [compound 133, 2-[1-(4-Fluoro-benzyl)-piperidin-2-yl]-1H-imidazo[4,5-b]pyrazine]: the IC50 was 5 to 15 µM.

With `Cc1cccc(CN2CCCCC2c2nc3cc(C)c(Cl)cc3[nH]2)c1` (centres unmarked) [compound 106, 6-Chloro-5-methyl-2-[1-(3-methyl-benzyl)-piperidin-2-yl]-1H-benzo-imidazole], the IC50 was less than 0.5 µM. Consider `COc1ccc(CN2CCCCC2c2cc3cc(F)ccc3[nH]2)cc1` (centres unmarked) [compound 107, 5-Fluoro-2-[1-(4-methoxy-benzyl)-piperidin-2-yl]-1H-indole], for which the IC50 is less than 0.5 µM. For `CCc1nc(CN2CCCCC2c2cc3cc(F)ccc3[nH]2)cs1` (centres unmarked) [compound 85], the IC50 is less than 0.5 µM. Next, `Cc1ccc(CN2CCCC[C@H]2c2cc3ccccc3[nH]2)cc1` [Example Compound 143, 2-[(S)-1-(4-Methyl-benzyl)-piperidin-2-yl]-1H-indole]: greater than 15 µM. With `CC(C)n1cc(CN2CCCCC2c2cc3ccccc3[nH]2)c2ccccc21` (centres unmarked) [compound 9, 3-[2-(1H-Indol-2-yl)-piperidin-1-ylmethyl]-1-isopropyl-1H-indole], the IC50 is 0.5 to 5 µM. The same measure for `CC1CCCC(c2cc3cc(F)ccc3[nH]2)N1Cc1ccc(F)cc1F` (centres unmarked) [compound 37, 2-[1-(2,4-Difluoro-benzyl)-6-methyl-piperidin-2-yl]-5-fluoro-1H-indole]: 0.5 to 5 µM. Consider `CC1CCCC(c2cc3cc(F)ccc3[nH]2)N1Cc1ccc(C#N)cc1` (centres unmarked) [compound 32, 4-[2-(5-Fluoro-1H-indol-2-yl)-6-methyl-piperidin-1-ylmethyl]-benzonitrile], for which the IC50 lay in the range of 0.5 to 5 µM.

`Cc1ccc(CN2CCCC[C@H]2c2cc3cc(F)ccc3[nH]2)cc1C` [compound 139, 2-[(S)-1-(3,4-Dimethyl-benzyl)-piperidin-2-yl]-5-fluoro-1H-indole]: the IC50 lay within 0.5 to 5 µM. For the compound `Cc1ccc(CN2CCCCC2c2cc3ccccc3o2)cc1C` (centres unmarked) [compound 50, 2-Benzofuran-2-yl-1-(3,4-dimethyl-benzyl)-piperidine], the IC50 fell in the range of 0.5 to 5 µM. The same measure for `Cc1ccc(CN2CCCCC2c2nc3ccc(Cl)cc3[nH]2)cc1C` (centres unmarked) [compound 88, 6-Chloro-2-[1-(3,4-dimethyl-benzyl)-piperidin-2-yl]-1H-benzo-imidazole]: less than 0.5 µM; for `Cc1cccc(CN2CCCCC2c2nc3ccc(S(N)(=O)=O)cc3[nH]2)c1` (centres unmarked) [compound 129, 2-[1-(3-Methyl-benzyl)-piperidin-2-yl]-3H-benzo-imidazole-5-sulfonic acid amide]: less than 0.5 µM. As to `Cc1ccc2c(CN3CCCCC3c3cc4cc(F)ccc4[nH]3)cn(C)c2c1` (centres unmarked) [compound 66, 3-[2-(5-Fluoro-1H-indol-2-yl)-piperidin-1-ylmethyl]-1,6-dimethyl-1H-indole], the half-inhibitory concentration (IC50) fell in the range of 0.5 to 5 µM.

In the case of `Cn1cc(CN2CCCCC2c2cc3ccccc3[nH]2)c2ccccc21` (centres unmarked) [compound 8, 3-[2-(1H-Indol-2-yl)-piperidin-1-ylmethyl]-1-methyl-1H-indole], the IC50 was in the range of 0.5 to 5 µM. For `Cc1ccc2c(c1)c(CN1CCCCC1c1cc3cc(F)ccc3[nH]1)cn2C` (centres unmarked) [compound 65, 3-[2-(5-Fluoro-1H-indol-2-yl)-piperidin-1-ylmethyl]-1,5-dimethyl-1H-indole], the IC50 lay within 0.5 to 5 µM.

As for `Fc1ccc(CN2CCCC[C@@H]2c2cc3ccccc3[nH]2)cc1` [compound 125, 2-[(R)-1-(4-Fluoro-benzyl)-piperidin-2-yl]-1H-indole], the 50% inhibitory concentration (IC50) was less than 0.5 µM.

As to `Fc1ccc(CN2CCCCC2c2cc3cccnc3[nH]2)cc1` (centres unmarked) [compound 144, 2-[1-(4-Fluoro-benzyl)-piperidin-2-yl]-1H-pyrrolo[2,3-b]pyridine], the 50% inhibitory concentration (IC50) was in the range of 0.5 to 5 µM. As for `CC1CCCC(c2cc3cc(F)ccc3[nH]2)N1Cc1ccc(Cl)cc1` (centres unmarked) [compound 39, 2-[1-(4-Chloro-benzyl)-6-methyl-piperidin-2-yl]-5-fluoro-1H-indole], the IC50 lay in the range of 0.5 to 5 µM. As for `Fc1ccc(CN2CCCC[C@H]2c2cc3ccccc3[nH]2)cc1` [compound 124, 2-[(S)-1-(4-Fluoro-benzyl)-piperidin-2-yl]-1H-indole], the IC50 lay in the range of 0.5 to 5 µM. Next, `FC(F)(F)c1cccc(CN2CCCCC2c2cc3ccccc3[nH]2)c1` (centres unmarked) [compound 17]: 5 to 15 µM.
